Experimental data reported in patent US7745450B2, “Pyrazolo[4,3-d]pyrimidines, processes for their preparation and methods for therapy” (Institute of Experimental Botany, priority 2002, dated 2010).
Where two headings read alike, the source gives them in different places.

Key:
cdk1/cyclin B (CDC2) = cdk1/cyclin B (CDC2) (Homo sapiens, UniProt P06493); assay: CDK inhibition assay, cdk1/cyclin B (CDC2) kinase, histone phosphorylation; type: biochemical
Experimental: Selected compounds were tested for cdk1/cyclin B and cdk2/cyclin E inhibitory activity to determine the basic relationships between their interaction energy of docked complex and the inhibitory activity. Cdk2/cyclin E complex was produced in SIP insect cells co-infected with appropriate baculoviral construct. The cells were harvested 70 hours post infection in lysis buffer (50 mM Tris 7.4 pH, 150 mM NaCl, 5 mM EDTA, 20 mM NaF, 1% Tween 20, protease inhibitors) for 30 min on ice and the soluble fraction was recovered by centrifugation at 14.000 g for 10 min. The protein extract was stored at −80° C. until use. The final point test system for kinase activity measurement was used to carry out experiments on the kinetics under linear conditions. The assay mixture contained 1 mg/ml histone (Sigma Type III-S), 15 μM ATP, 0.2 μCi [γ-^32P] ATP and tested compound in a final volume of 20 μl, all in reaction buffer: 50 mM Hepes 7.4 pH, 10 mM MgCl2, 5 mM EGTA, 10 mM 2-glycerolphosphate, 1 mM NaF, 1 mM DTT and protease inhibitors. […] The measurement of kinase inhibition employed the digital imaging analyzer BAS 1800. The kinase activity was expressed as a percentage of maximum activity and the IC50 value was determined by graphic analysis. The kinase activity is expressed as a percentage of maximum activity, the apparent inhibition constants are determined by graphic analysis from dose-response curves presented on FIG. 1.

IκB-α kinase = IκB-α kinase inhibition, in vitro kinase assay; type: biochemical
[1] = system: Cytokinin-dependent tobacco callus Nicotiana tabacum L. cv. Wisconsins 38; assay: Tobacco callus bioassay for cytotoxicity (herbicidal activity); type: cell-based; details: Nicotiana tabacum, 672 h
Experimental: The novel compounds have also been tested in tobacco callus bioassay for cytotoxicity (herbicidal activity) and induction of cell death. The compounds to be tested were dissolved in dimethylsulfoxide (DMSO) and the solution brought up to 10^−3 M with distilled water. […] Cytokinin-dependent tobacco callus Nicotiana tabacum L. cv. Wisconsins 38 Murashige-Skoog medium, containing per 1 liter: 4 μmol nicotinic acid, 2.4 μmol pyridoxine hydrochloride, 1.2 μmol thiamine, 26.6 μmol glycine, 1.37 μmol glutamine, 1.8 μmol myo.inositol, 30 g of sucrose, 8 g of agar, […] α-naphthylacetic acid and 0.5 μmol 6-benzylaminopurine. Sub cultivation was carried out every three weeks. Fourteen days before the bioassay, the callus tissue was transferred to the media without 6-benzylaminopurine. Compounds were tested with two different concentrations of 6-benzylaminopurine (10^−5 M and 10^−6 M). Inhibitory growth activity was determined from the increase in fresh callus weight after four weeks of cultivation. Five replicates were prepared for each concentration tested and the entire test was repeated at least twice.

MMK1 protein kinase = MMK1 protein kinase (Vicia faba, UniProt A0AAV1B7B8); assay: MMK1 protein kinase activity; type: biochemical
Experimental: Protein extraction and purification of pant CDK by binding to p13^suc1-beads or immunopurification with an antibody specific to the cdc2a-MS protein was carried out as described previously (Bögre et al. 1997, Plant Physiol. 113, 1997, 841-852). The MMK1 protein kinase was purified with a specific antibody from Vicia faba extracts as described by Bögre et al. 1997a, Plant Cell 9, 75-83). Protein kinase activity was measures as described above in Example 20. The quantification of radioactivity incorporated into histone H1 or myelin basic protein was undertaken using phosphoimager (FIG. 2).

[2] = system: CEM (human lymphoblastoid leukemia); assay: In vitro cytotoxic activity, Calcein AM; type: cell-based; details: Homo sapiens, 72 h, three days
Experimental: We have been using the following cell lines: HELA (human cervical carcinoma), MCF7 (human breast adenocarcinoma), NIH 3T3 (mouse fibroblasts), HOS (human osteogenic sarcoma), HL 60 (human promyelocytic leukemia), G 361 (human malignant melanoma), K562 (human erythroleukemia), CEM (human lymphoblastoid leukemia). Tested drugs were added to the cell cultures in six different concentration and kept at 37° C. and 5% CO2 for three days. All cell lines were grown in DMEM medium (Gibco BRL) supplemented with 10% (v/v) fetal bovine serum and L-glutamine and maintained at 37° C. in a humidified atmosphere with 5% CO2. 10^4 cells were seeded into each well of 96 well plate, allowed to stabilize for at least 2 h and then tested compounds were added at various concentrations ranging from 200 to 0.2 μM in triplicates. Three days after drug addition Calcein AM solution (Molecular Probes) was added and let to enter the cells for 1 hour. Fluorescence of viable cells was quantified employing Fluoroskan Ascent (Microsystems).

B16 = assay: In vitro cytotoxic activity, Calcein AM; type: cell-based; details: Mus musculus, B16, 72 h, three days
[3] = read-out: 10^−5 M BAP IC50, 10^−5 M 6-benzylaminopurine, four weeks
[4] = read-out: 10^−6 M BAP IC50, 10^−6 M 6-benzylaminopurine, four weeks

Sequence of MMK1 protein kinase (A0AAV1B7B8 1-394): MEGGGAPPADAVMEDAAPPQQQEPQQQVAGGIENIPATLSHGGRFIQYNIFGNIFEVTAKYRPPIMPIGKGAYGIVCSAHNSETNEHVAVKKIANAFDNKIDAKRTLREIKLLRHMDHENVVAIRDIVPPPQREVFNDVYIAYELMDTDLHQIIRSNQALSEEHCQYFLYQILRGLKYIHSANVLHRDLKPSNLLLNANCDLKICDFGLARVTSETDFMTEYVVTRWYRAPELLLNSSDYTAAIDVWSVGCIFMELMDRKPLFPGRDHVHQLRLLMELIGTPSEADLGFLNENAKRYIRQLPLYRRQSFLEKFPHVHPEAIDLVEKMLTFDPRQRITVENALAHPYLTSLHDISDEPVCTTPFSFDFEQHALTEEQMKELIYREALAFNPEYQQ
Sequence of cdk1/cyclin B (CDC2) (P06493 whole entry, species assumed): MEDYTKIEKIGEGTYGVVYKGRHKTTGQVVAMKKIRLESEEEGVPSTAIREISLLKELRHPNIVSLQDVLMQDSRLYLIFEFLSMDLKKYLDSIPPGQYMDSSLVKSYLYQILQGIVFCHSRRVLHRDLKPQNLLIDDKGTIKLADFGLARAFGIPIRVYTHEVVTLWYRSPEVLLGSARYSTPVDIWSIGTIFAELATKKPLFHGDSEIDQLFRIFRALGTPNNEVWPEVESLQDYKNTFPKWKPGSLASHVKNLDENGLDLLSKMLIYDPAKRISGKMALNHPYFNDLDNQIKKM
Sequence of cdk1/cyclin B (CDC2) (P14635 whole entry partner, species assumed): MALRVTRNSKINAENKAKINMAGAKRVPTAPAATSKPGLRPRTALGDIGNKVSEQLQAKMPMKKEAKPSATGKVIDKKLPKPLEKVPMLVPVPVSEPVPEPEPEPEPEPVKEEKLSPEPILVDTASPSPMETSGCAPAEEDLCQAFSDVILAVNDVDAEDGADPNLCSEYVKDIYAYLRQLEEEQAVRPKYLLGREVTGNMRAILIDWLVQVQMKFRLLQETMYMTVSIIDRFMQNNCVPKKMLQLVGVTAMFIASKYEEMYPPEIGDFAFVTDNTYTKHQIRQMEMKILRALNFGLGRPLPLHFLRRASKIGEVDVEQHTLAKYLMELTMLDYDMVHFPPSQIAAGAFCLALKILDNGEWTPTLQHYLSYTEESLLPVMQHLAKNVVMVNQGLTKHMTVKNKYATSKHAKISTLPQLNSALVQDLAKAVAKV

Compound	IC50 (cdk1/cyclin B (CDC2)) [µM]	IC50 (IκB-α kinase) [µM]	IC50 [1, 3] [µM]	IC50 [1, 4] [µM]	IC50 (MMK1 protein kinase) [µM]	GI50 [2] [µM]	GI50 (B16) [µM]
CC[C@H](CO)Nc1nc(NCc2cccc(Cl)c2O)c2[nH]nc(C(C)C)c2n1	0.007	0.012	46	6.7			
CC[C@H](CO)Nc1nc(NCc2cccc(OC)c2O)c2[nH]nc(C(C)C)c2n1	0.004	0.012	> 50	14.8			
CC[C@H](CO)Nc1nc(NCc2cccc(C)c2O)c2[nH]nc(C(C)C)c2n1	0.006	0.014	> 50	12.3			
CC[C@H](CO)Nc1nc(NCc2ccc(Cl)c(N)c2N)c2[nH]nc(C(C)C)c2n1					0.4	4.6	9.9
CC[C@H](CO)Nc1nc(NCc2cccc(OC(C)=O)c2)c2[nH]nc(C(C)C)c2n1	0.07	0.4	> 50	28.7			
CC[C@H](CO)Nc1nc(Nc2ccc(Cl)c(N)c2)c2[nH]nc(C(C)C)c2n1	0.004	0.013	26	1.5			
CC[C@H](CO)Nc1nc(NCc2ccc(Cl)c(N)c2)c2[nH]nc(C(C)C)c2n1					0.024	11.4	18.7
CC[C@H](CO)Nc1nc(Nc2ccc(Cl)c(C(=O)O)c2)c2[nH]nc(C(C)C)c2n1	0.001	0.002	28	1.5			
CC[C@H](CO)Nc1nc(Nc2ccc(O)c(C(=O)O)c2)c2[nH]nc(C(C)C)c2n1	0.01	0.03	> 50	> 50			
CC[C@H](CO)Nc1nc(Nc2ccc(N)c(Cl)c2)c2[nH]nc(C(C)C)c2n1	0.002	0.009	48	8.7			
CC[C@H](CO)Nc1nc(Nc2ccc(C(=O)O)c(Cl)c2)c2[nH]nc(C(C)C)c2n1	0.002	0.004	> 50	12.8			
CC[C@H](CO)Nc1nc(Nc2cc(N)cc(Cl)c2)c2[nH]nc(C(C)C)c2n1	0.004	0.02	36	2.8			
CC[C@H](CO)Nc1nc(Nc2ccc(Br)cc2)c2[nH]nc(C(C)C)c2n1	0.002	0.01	38	4.3			
CC[C@H](CO)Nc1nc(Nc2ccc(Cl)cc2)c2[nH]nc(C(C)C)c2n1	0.003	0.009	35	3.9			
CC[C@H](CO)Nc1nc(N(C)CCc2ccc(O)c(O)c2)c2[nH]nc(C(C)C)c2n1					1.5	13.1	18.6
CC[C@H](CO)Nc1nc(N(C)Cc2ccc(O)c(O)c2)c2[nH]nc(C(C)C)c2n1					0.51	11.6	19.4
CCC(CO)Nc1nc(NC(CO)c2ccccc2)c2[nH]nc(C(C)C)c2n1 (stereo not shown)					0.21	7.9	13.7
CC[C@H](CO)Nc1nc(Nc2ccccc2)c2[nH]nc(C(C)C)c2n1	0.02	0.11	48	6.2			
CC[C@H](CO)Nc1nc(NCc2ccccc2)c2[nH]nc(C(C)C)c2n1	0.01	0.03	> 50	28			
Cc1n[nH]c2c(NCc3ccccc3)nc(NCCN)nc12 [2-aminoethylamino; benzylamino; methyl]	2	5	> 50	> 50			
Cc1n[nH]c2c(NCc3ccccc3)nc(NCCCN)nc12 [3-aminopropylamino; benzylamino; methyl]	0.2	0.4	> 50	45			
